These results are taken from PubChem BioAssay AID330 (DTP/NCI, 2004).

“And” between values parts separate entries of the source, which are not always exact repeats. Equal values may be shown once. Inconclusive results and toxic doses are left out.

In this assay the test system is P388 leukemia ip, CD2F1 mice, survival T/C. As to the kind of experiment: NCI In Vivo Anticancer Drug Screen. Data for tumor model P388 Leukemia (intraperitoneal) in CD2F1 (CDF1) mice. As to conditions: endpoint: median survival time, higher = longer survival. A digest of the protocol:
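Mice carrying the transplanted tumor received test compound or vehicle. Survival was recorded in each group, and the value is the treated-group measurement divided by that of the vehicle-treated control group.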

[1] abbreviates: dose: 25.0 mg/kg/injection, schedule: Q01DX005 (ip), vehicle: Klucel (hydroxypropylcellulose) (HPC).
Setting [2] is: dose: 50.0 mg/kg/injection, schedule: Q01DX005 (ip), vehicle: Klucel (hydroxypropylcellulose) (HPC).
Setting [3] is: dose: 50.0 mg/kg/injection, schedule: Q01DX005 (ip), vehicle: saline with Tween-80.
[4] abbreviates: dose: 100.0 mg/kg/injection, schedule: Q01DX005 (ip), vehicle: saline with Tween-80.
Where [5] appears, read: dose: 50.0 mg/kg/injection, schedule: Q01DX009 (ip), vehicle: saline.
Where [6] appears, read: dose: 100.0 mg/kg/injection, schedule: Q01DX009 (ip), vehicle: saline.
Where [7] appears, read: dose: 200.0 mg/kg/injection, schedule: Q01DX009 (ip), vehicle: saline.
Setting [8] is: dose: 50.0 mg/kg/injection, schedule: Q01DX009 (ip), vehicle: suspension in saline.
Where [9] appears, read: dose: 100.0 mg/kg/injection, schedule: Q01DX009 (ip), vehicle: suspension in saline.
Setting [10] is: dose: 200.0 mg/kg/injection, schedule: Q01DX005 (ip), vehicle: saline with Tween-80.
The mark [11] stands for this setting: dose: 25.0 mg/kg/injection, schedule: Q01DX009 (ip), vehicle: saline with Tween-80.
Where [12] appears, read: dose: 50.0 mg/kg/injection, schedule: Q01DX009 (ip), vehicle: saline with Tween-80.
[13] abbreviates: dose: 100.0 mg/kg/injection, schedule: Q01DX009 (ip), vehicle: saline with Tween-80.
[14] abbreviates: dose: 200.0 mg/kg/injection, schedule: Q01DX009 (ip), vehicle: saline with Tween-80.
[15] abbreviates: dose: 50.0 mg/kg/injection, schedule: Q01DX009 (ip), vehicle: Klucel (hydroxypropylcellulose) (HPC).
Setting [16] is: dose: 100.0 mg/kg/injection, schedule: Q01DX009 (ip), vehicle: Klucel (hydroxypropylcellulose) (HPC).
Where [17] appears, read: dose: 60.0 mg/kg/injection, schedule: Q01DX005 (ip), vehicle: saline with Tween-80.
The mark [18] stands for this setting: dose: 120.0 mg/kg/injection, schedule: Q01DX005 (ip), vehicle: saline with Tween-80.
[19] abbreviates: dose: 240.0 mg/kg/injection, schedule: Q01DX005 (ip), vehicle: saline with Tween-80.
Setting [20] is: dose: 100.0 mg/kg/injection, schedule: Q04DX003 (ip), vehicle: saline with Tween-80.
Setting [21] is: dose: 200.0 mg/kg/injection, schedule: Q04DX003 (ip), vehicle: saline with Tween-80.
[22] abbreviates: dose: 400.0 mg/kg/injection, schedule: Q04DX003 (ip), vehicle: saline with Tween-80.

For the compound `O=[N+]([O-])c1cnccc1Nc1ccncc1`, the T/C is 100 % of control (dose: 100.0 mg/kg/injection, schedule: Q01DX001 (ip), vehicle: saline with Tween-80) and 100 % of control (dose: 200.0 mg/kg/injection, schedule: Q01DX001 (ip), vehicle: saline with Tween-80).

As for `OC(CC(O)(C(F)(F)F)C(F)(F)F)CC(O)(C(F)(F)F)C(F)(F)F`, the T/C by setting is: (dose: 6.25 mg/kg/injection, schedule: Q04DX003 (ip), vehicle: saline with Tween-80) 109 % of control; (dose: 12.5 mg/kg/injection, schedule: Q04DX003 (ip), vehicle: saline with Tween-80) 109 % of control; (dose: 25.0 mg/kg/injection, schedule: Q04DX003 (ip), vehicle: saline with Tween-80) 95 % of control.

In the case of `CC(C)(C)c1ccnc(C(O)(C(F)(F)F)C(F)(F)F)c1`, the T/C is 93 % of control under setting [1]; 101 % of control under setting [2]; 108 % of control (dose: 100.0 mg/kg/injection, schedule: Q01DX005 (ip), vehicle: Klucel (hydroxypropylcellulose) (HPC)); 103 % of control (dose: 200.0 mg/kg/injection, schedule: Q01DX005 (ip), vehicle: Klucel (hydroxypropylcellulose) (HPC)).

For `CN(C)CCCN1C(=O)C2CCC(C)(C1=O)C2(C)C` (stereo not given), the T/C runs as follows: under setting [3], 100 % of control; under setting [4], 101 % of control.

With `CNc1cc2nc3ccccc3nc2cc1O`, the T/C runs as follows: under setting [5], 104 % of control; under setting [6], 92 % of control; under setting [7], 86 % of control.

Turning to `CC(=O)Nc1ccc(S(=O)(=O)CC#N)cc1`, the T/C is 87 % of control under setting [8] and 93 % of control under setting [9].

With `Nc1nc(Br)c2ncn(C3OC(CO)C(O)C3O)c2n1` (stereo not given), the T/C runs as follows: under setting [3], 101 % of control; under setting [4], 101 % of control; under setting [10], 94 % of control.

On to `C=C(C)C(=O)c1ccc(C(=O)O)cc1`, for which the T/C is, setting by setting: (dose: 12.5 mg/kg/injection, schedule: Q04DX002 (ip), vehicle: saline with Tween-80) 105 % of control; (dose: 25.0 mg/kg/injection, schedule: Q04DX002 (ip), vehicle: saline with Tween-80) 114 % of control; (dose: 50.0 mg/kg/injection, schedule: Q04DX002 (ip), vehicle: saline with Tween-80) 122 % of control.

Consider `COC(=O)c1c(C(=O)Nc2ccc(Cl)cc2)c(C)n(NC(N)=O)c1C`, for which the T/C runs as follows: under setting [3], 95 % of control; under setting [4], 95 % of control; under setting [10], 101 % of control.

`O=c1nc(-c2ccccc2)cc(CCc2ccccc2)[nH]1`: the T/C was 90 % of control under setting [3], 89 % of control under setting [4] and 102 % of control under setting [10].

On to `COc1ccc(C(C)(c2cc(C(C)(C)C)c(O)c(C(C)(C)C)c2)n2ccnc2)cc1` (stereo not given), for which the T/C by setting is: under setting [3], 98 % of control; under setting [4], 94 % of control; under setting [10], 91 % of control.

Consider `CCCCCCCC[N+]1([O-])CCOCC1`, for which the T/C is 108 % of control under setting [5], 97 % of control under setting [6] and 88 % of control under setting [7].

For the compound `COc1ccc(OC)c(N2C(=O)C=C(C)C2(O)CC#N)c1` (stereo not given), the T/C is, setting by setting: (dose: 6.25 mg/kg/injection, schedule: Q01DX009 (ip), vehicle: saline with Tween-80) 100 % of control; (dose: 12.5 mg/kg/injection, schedule: Q01DX009 (ip), vehicle: saline with Tween-80) 95 % of control; under setting [11], 98 % of control; under setting [12], 98 % of control.

On to `O=C(Cc1ccc(-c2ccccc2)cc1)Nc1ccccn1`, for which the T/C is 99 % of control under setting [12], 108 % of control under setting [13] and 105 % of control under setting [14].

With `CCN1CCC(=C(c2ccccc2)c2ccccc2)C1`, the T/C runs as follows: (dose: 6.25 mg/kg/injection, schedule: Q01DX009 (ip), vehicle: Klucel (hydroxypropylcellulose) (HPC)) 102 % of control; (dose: 12.5 mg/kg/injection, schedule: Q01DX009 (ip), vehicle: Klucel (hydroxypropylcellulose) (HPC)) 102 % of control; (dose: 25.0 mg/kg/injection, schedule: Q01DX009 (ip), vehicle: Klucel (hydroxypropylcellulose) (HPC)) 100 % of control; under setting [15], 110 % of control; under setting [16], 108 % of control.

As to `CCCCOC(=O)NC(=O)c1cc2cc(I)cc(I)c2oc1=O`, the T/C is, setting by setting: under setting [17], 91 % of control; under setting [18], 94 % of control; under setting [19], 94 % of control.

`CSc1ncc(Br)c(C(=O)O)n1`: the T/C under setting [20] is 100 % of control, the T/C under setting [21] is 100 % of control and the T/C under setting [22] is 100 % of control.

As to `CC1(CSc2ccccc2)CC(=O)N1` (stereo not given), the T/C runs as follows: under setting [8], 111 % of control; under setting [9], 98 % of control; (dose: 200.0 mg/kg/injection, schedule: Q01DX009 (ip), vehicle: suspension in saline) 99 % of control.

As for `Nc1nc2ccc(CNc3ccc(C(=O)NC(CCC(=O)O)C(=O)O)cc3)nc2c(=O)[nH]1` (stereo not given), the T/C was 102 % of control (dose: 50.0 mg/kg/injection, schedule: Q04DX003 (ip), vehicle: saline with Tween-80) and 155 % of control under setting [20].

On to `COc1ccc2c(C)cc(N/N=C(\c3ccccc3)c3ccccn3)nc2c1`, for which the T/C is 107 % of control (dose: 1.56 mg/kg/injection, schedule: Q01DX005 (ip), vehicle: saline with Tween-80); 102 % of control (dose: 3.12 mg/kg/injection, schedule: Q01DX005 (ip), vehicle: saline with Tween-80); 98 % of control and 94 % of control (dose: 6.25 mg/kg/injection, schedule: Q01DX005 (ip), vehicle: saline with Tween-80); 89 % of control under setting [4]; 94 % of control under setting [10].

As for `COc1cc([N+](=O)[O-])cc(/C=C(\C)C2SC(C)(C)C(C)CN2C)c1O` (stereo not given), the T/C is 109 % of control under setting [20], 103 % of control under setting [21] and 100 % of control under setting [22].

As to `CCC(=O)O[C@H]1CC[C@H]2[C@@H]3C[C@H](C)C4=CC(=O)C=C[C@]4(C)[C@H]3C(=O)C[C@]12C`, the T/C is 90 % of control under setting [20], 104 % of control under setting [21] and 100 % of control under setting [22].

As for `C=C(C)C(=NC(C)(C)C)Nc1ccccc1Cl`, the T/C by setting is: under setting [11], 101 % of control and 90 % of control; under setting [12], 100 % of control and 119 % of control and 93 % of control; under setting [13], 111 % of control and 115 % of control and 90 % of control; under setting [14], 115 % of control and 98 % of control.

For the compound `O=C(O)c1c(Cl)c(Cl)c(Cl)c(Cl)c1C(=O)Nc1ccc2cn[nH]c2c1`, the T/C by setting is: (dose: 50.0 mg/kg/injection, schedule: Q01DX009 (ip), vehicle: saline + alcohol) 101 % of control; (dose: 100.0 mg/kg/injection, schedule: Q01DX009 (ip), vehicle: saline + alcohol) 100 % of control.

On to `CN(C)P1(=O)OCC(C(C)(C)C)CN1C` (stereo not given), for which the T/C by setting is: under setting [15], 100 % of control; under setting [16], 107 % of control.

With `COc1cc(C(O)CCBr)c(OC)cc1C` (stereo not given), the T/C reads like this: under setting [17], 100 % of control; under setting [18], 100 % of control; under setting [19], 95 % of control.

For the compound `CCCOC(=O)NC(C)C(=O)NC(CCC(=O)NC(CCCC(N)C(=O)O)C(=O)NC(C)C(=O)O)C(=O)O` (stereo not given), the T/C was 100 % of control (dose: 1.56 mg/kg/injection, schedule: Q01DX005 (ip), vehicle: Klucel (hydroxypropylcellulose) (HPC)); 103 % of control (dose: 3.12 mg/kg/injection, schedule: Q01DX005 (ip), vehicle: Klucel (hydroxypropylcellulose) (HPC)); 100 % of control (dose: 6.25 mg/kg/injection, schedule: Q01DX005 (ip), vehicle: Klucel (hydroxypropylcellulose) (HPC)); 95 % of control and 96 % of control (dose: 12.5 mg/kg/injection, schedule: Q01DX005 (ip), vehicle: Klucel (hydroxypropylcellulose) (HPC)); 86 % of control under setting [1]; 100 % of control under setting [2].
